Values quoted from earlier work, collected in patent US6482863B2, “Insect repellant formulation deliverable by piezoelectric device” (S. C. Johnson & Son, Inc., priority 2000, dated 2002).

Assays:
[1] = at 25° C.
[2] = at 20° C.

Row | SMILES | viscosity of solvent [1] [cp] | vapor pressure of solvent [2] [mm Hg] | water solubility [g/100 ml water]
1 | COCC(C)OCC(C)OC (stereo not shown) [Dipropylene glycol dimethyl ether] | 1 | 0.55 | 35
2 | COCC(C)O (stereo not shown) [Propylene glycol methyl ether] |  | 8.1 | 
